IC50 and EC50 data for four molecules are collected here from ChEMBL document CHEMBL1141434, “Chlorocyclinones A-D, chlorinated angucyclinones from Streptomyces sp. strongly antagonizing rosiglitazone-induced PPAR-gamma activation” (J Nat Prod, 2007).

For assay [1], the target named is T1, Peroxisome proliferator-activated receptor gamma (Homo sapiens, UniProt P37231).
T1 sequence (P37231 whole entry): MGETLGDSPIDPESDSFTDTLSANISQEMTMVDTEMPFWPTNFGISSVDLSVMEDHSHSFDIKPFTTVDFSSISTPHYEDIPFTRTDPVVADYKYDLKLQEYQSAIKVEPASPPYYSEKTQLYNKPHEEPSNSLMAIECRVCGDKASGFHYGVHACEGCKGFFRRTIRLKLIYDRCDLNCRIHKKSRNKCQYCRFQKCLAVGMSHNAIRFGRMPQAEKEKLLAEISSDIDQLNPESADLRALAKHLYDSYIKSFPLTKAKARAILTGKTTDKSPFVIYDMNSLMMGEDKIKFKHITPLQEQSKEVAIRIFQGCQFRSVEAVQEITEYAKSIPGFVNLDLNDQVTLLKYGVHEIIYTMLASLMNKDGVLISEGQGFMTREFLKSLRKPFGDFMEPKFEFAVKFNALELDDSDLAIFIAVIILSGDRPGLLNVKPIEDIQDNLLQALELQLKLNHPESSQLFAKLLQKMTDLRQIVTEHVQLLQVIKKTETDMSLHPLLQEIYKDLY
Briefly: Antagonist activity at human PPARgamma receptor assessed as rosiglitazone-induced receptor activation by alphascreen assay. The assay is classed as functional. In general terms: Alpha assays give light when donor and acceptor beads are brought close together.

Assay [2] has as its target T1, Peroxisome proliferator-activated receptor gamma. Briefly: Displacement of [3H]rosiglitazone from human PPARgamma receptor by scintillation proximity assay. (In general: Displacement assays read how much labelled ligand stays bound in the presence of the test substance.)
The target is the same in assay [3]. Briefly: Antagonist activity at human PPARgamma receptor in CHO-K1 cells assessed as rosiglitazone-induced receptor activation by cell based reporter assay. The assay is classed as functional. (In general: A reporter such as luciferase makes a cellular process visible.)

A word on the IC50: it is the concentration at which inhibition is half-maximal. One may read the EC50 as the concentration needed to bring the measured effect to its halfway point. Higher therefore signals a need for much substance. With `CCc1c(C(=O)OC)cc2c(c1O)C(=O)c1c(O)cc3cc(C)c(Cl)c(OC)c3c1C2=O` [CHLOROCYCLINONE A], the IC50 in assay [1] was found to be 160 nM; in assay [3], 7000 nM. Besides, a half-maximal response in assay [2] (EC50) required 180 nM.
As for `COC(=O)c1cc2c(c(O)c1C(C)OC(=O)CO)C(=O)c1c(O)cc3cc(C)c(Cl)c(OC)c3c1C2=O` (configuration not stated) [CHLOROCYCLINONE C], the values for the IC50 in assay [1] and in assay [3] were 90 nM and 600 nM, respectively. In assay [2], this molecule registered an EC50 of 130 nM.
With `COc1c(Cl)c(C)cc2cc(O)c3c(c12)C(=O)c1cc2c(c(O)c1C3=O)C(C)OC2=O` (configuration not stated) [CHLOROCYCLINONE D], the half-inhibitory concentration (IC50) in assay [1] was found to be 320 nM; in assay [3], 4400 nM. Also, a half-maximal effect in assay [2] (EC50) was put at 260 nM.
For `COC(=O)c1cc2c(c(O)c1C(C)OC(C)=O)C(=O)c1c(O)cc3cc(C)c(Cl)c(OC)c3c1C2=O` (configuration not stated) [CHLOROCYCLINONE B], the IC50 in assay [1] worked out at 100 nM; in assay [3], 1400 nM. Further, in assay [2], the EC50 is 160 nM.
